Experimental data taken from PubChem BioAssay (NCI).
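Growth conditions: 96-well plates. Treatment: test compound, 48 hours, 5 concentrations. Analysis: linear interpolation between bracketing concentrations; unreached endpoints set to highest concentration. Here, GI50 denotes the concentration required for 50% inhibition of growth. TGI denotes the concentration required for complete inhibition of growth.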

Tests used:
Assay in all cases: growth of human tumour cells (NCI), 48 h
KM12 colon = test system: KM12 colon
SF-295 CNS = test system: SF-295 CNS
OVCAR-8 ovarian = test system: OVCAR-8 ovarian
NCI-H23 lung = test system: NCI-H23 lung
IGROV1 ovarian = test system: IGROV1 ovarian
SNB-75 CNS = test system: SNB-75 CNS
NCI-H522 lung = test system: NCI-H522 lung
UO-31 renal = test system: UO-31 renal
HS 578T breast = test system: HS 578T breast
SK-MEL-5 melanoma = test system: SK-MEL-5 melanoma
HOP-92 NSCLC = test system: HOP-92 NSCLC
COLO 205 colon = test system: COLO 205 colon
PC-3 prostate = test system: PC-3 prostate
SR leukemia = test system: SR leukemia
MDA-MB-468 breast = test system: MDA-MB-468 breast
MALME-3M melanoma = test system: MALME-3M melanoma
HCT-15 colon = test system: HCT-15 colon
A498 renal = test system: A498 renal
SNB-19 CNS = test system: SNB-19 CNS
OVCAR-5 ovarian = test system: OVCAR-5 ovarian
SF-539 CNS = test system: SF-539 CNS
UACC-62 melanoma = test system: UACC-62 melanoma
HCC-2998 colon = test system: HCC-2998 colon
SF-268 CNS = test system: SF-268 CNS
MDA-MB-231 breast = test system: MDA-MB-231 breast
MOLT-4 leukemia = test system: MOLT-4 leukemia
MDA-MB-435 = test system: MDA-MB-435
SK-MEL-28 melanoma = test system: SK-MEL-28 melanoma
SN12C renal = test system: SN12C renal
SK-OV-3 ovarian = test system: SK-OV-3 ovarian
ACHN renal = test system: ACHN renal
UACC-257 melanoma = test system: UACC-257 melanoma
CAKI-1 renal = test system: CAKI-1 renal
HOP-62 NSCLC = test system: HOP-62 NSCLC
BT-549 breast = test system: BT-549 breast
NCI-H226 lung = test system: NCI-H226 lung
M14 melanoma = test system: M14 melanoma
OVCAR-4 ovarian = test system: OVCAR-4 ovarian
EKVX NSCLC = test system: EKVX NSCLC
SW-620 colon = test system: SW-620 colon
NCI/ADR-RES ovarian = test system: NCI/ADR-RES ovarian
U251 CNS = test system: U251 CNS
A549 NSCLC = test system: A549 NSCLC
T-47D breast = test system: T-47D breast
TK-10 renal = test system: TK-10 renal
MCF7 breast = test system: MCF7 breast
786-0 renal = test system: 786-0 renal
HCT-116 colon = test system: HCT-116 colon
NCI-H460 lung = test system: NCI-H460 lung
OVCAR-3 ovarian = test system: OVCAR-3 ovarian
LOX IMVI melanoma = test system: LOX IMVI melanoma
RPMI-8226 leukemia = test system: RPMI-8226 leukemia
HT29 colon = test system: HT29 colon
DU-145 prostate = test system: DU-145 prostate
CCRF-CEM leukemia = test system: CCRF-CEM leukemia
HL-60(TB) leukemia = test system: HL-60(TB) leukemia
K-562 leukemia = test system: K-562 leukemia
SK-MEL-2 melanoma = test system: SK-MEL-2 melanoma

With `N/C(=N\c1nc2ccccc2s1)NC(=O)Nc1ccccc1Br` the GI50 (KM12 colon) was 0.125 µM, the GI50 (SF-295 CNS) was 0.104 µM and the TGI (SF-295 CNS) was 3.86 µM. The GI50 (OVCAR-8 ovarian) was 0.148 µM, the GI50 (NCI-H23 lung) was 0.146 µM and the TGI (NCI-H23 lung) was > 20.6 µM. The GI50 (IGROV1 ovarian) was 0.164 µM, the TGI (IGROV1 ovarian) was > 35 µM and the GI50 (SNB-75 CNS) was 0.0583 µM. For the same compound, the GI50 (NCI-H522 lung) was < 0.0485 µM, the TGI (NCI-H522 lung) was 0.169 µM and the GI50 (UO-31 renal) was 0.184 µM. The TGI (UO-31 renal) was > 37.2 µM, the GI50 (HS 578T breast) was 0.0798 µM and the TGI (HS 578T breast) was > 25.5 µM. For the same compound, the GI50 (SK-MEL-5 melanoma) was 0.103 µM, the TGI (SK-MEL-5 melanoma) was 0.697 µM and the TGI (HOP-92 NSCLC) was > 28.1 µM. For the same compound, the GI50 (COLO 205 colon) was 0.0964 µM, the TGI (COLO 205 colon) was 0.328 µM and the GI50 (PC-3 prostate) was 0.162 µM. The TGI (PC-3 prostate) was > 53.1 µM, the TGI (SR leukemia) was > 41.8 µM and the GI50 (MDA-MB-468 breast) was 0.419 µM. The TGI (MDA-MB-468 breast) was 1.66 µM, the GI50 (MALME-3M melanoma) was 0.151 µM and the TGI (MALME-3M melanoma) was > 25 µM. The GI50 (HCT-15 colon) was 0.116 µM, the GI50 (A498 renal) was > 38.2 µM and the TGI (A498 renal) was > 58.4 µM. The GI50 (SNB-19 CNS) was 0.178 µM, the TGI (SNB-19 CNS) was > 43.1 µM and the GI50 (OVCAR-5 ovarian) was 0.22 µM. For the same compound, the GI50 (SF-539 CNS) was 0.0693 µM, the TGI (SF-539 CNS) was 0.195 µM and the GI50 (UACC-62 melanoma) was 0.0882 µM. The TGI (UACC-62 melanoma) was > 35.1 µM, the GI50 (HCC-2998 colon) was 0.192 µM and the TGI (HCC-2998 colon) was 3.39 µM. For the same compound, the GI50 (SF-268 CNS) was 0.801 µM, the TGI (SF-268 CNS) was > 35 µM and the GI50 (MDA-MB-231 breast) was 0.148 µM. For the same compound, the TGI (MDA-MB-231 breast) was 1.43 µM, the GI50 (MOLT-4 leukemia) was 0.165 µM and the TGI (MOLT-4 leukemia) was > 33.8 µM. For the same compound, the GI50 (MDA-MB-435) was < 0.0372 µM, the TGI (MDA-MB-435) was 0.0767 µM and the GI50 (SK-MEL-28 melanoma) was 1.43 µM. The TGI (SK-MEL-28 melanoma) was > 100 µM, the GI50 (SN12C renal) was 0.194 µM and the GI50 (SK-OV-3 ovarian) was 0.188 µM. For the same compound, the TGI (SK-OV-3 ovarian) was > 32.2 µM, the GI50 (ACHN renal) was 0.244 µM and the TGI (UACC-257 melanoma) was > 100 µM. For the same compound, the GI50 (CAKI-1 renal) was 0.0925 µM, the GI50 (HOP-62 NSCLC) was 0.145 µM and the TGI (HOP-62 NSCLC) was > 32 µM. For the same compound, the GI50 (BT-549 breast) was 0.256 µM, the TGI (BT-549 breast) was 7.18 µM and the GI50 (NCI-H226 lung) was 0.723 µM. For the same compound, the TGI (NCI-H226 lung) was 8.73 µM, the GI50 (M14 melanoma) was 0.0768 µM and the GI50 (OVCAR-4 ovarian) was 6.21 µM. The TGI (OVCAR-4 ovarian) was > 23.5 µM, the GI50 (EKVX NSCLC) was 0.183 µM and the TGI (EKVX NSCLC) was > 76.9 µM. The GI50 (SW-620 colon) was 0.116 µM, the TGI (SW-620 colon) was > 38.1 µM and the GI50 (NCI/ADR-RES ovarian) was 0.0101 µM. For the same compound, the TGI (NCI/ADR-RES ovarian) was 0.0406 µM, the GI50 (U251 CNS) was 0.116 µM and the GI50 (A549 NSCLC) was 0.282 µM. The GI50 (T-47D breast) was 0.0513 µM, the TGI (T-47D breast) was > 100 µM and the TGI (TK-10 renal) was > 28.4 µM. For the same compound, the GI50 (MCF7 breast) was 0.119 µM, the TGI (MCF7 breast) was > 91.6 µM and the GI50 (786-0 renal) was 0.17 µM. For the same compound, the GI50 (HCT-116 colon) was 0.115 µM, the TGI (HCT-116 colon) was 3.63 µM and the GI50 (NCI-H460 lung) was 0.116 µM. It also gave a GI50 (OVCAR-3 ovarian) of 0.102 µM, a TGI (OVCAR-3 ovarian) of 1.34 µM and a GI50 (LOX IMVI melanoma) of 0.235 µM. The TGI (LOX IMVI melanoma) was 8.74 µM, the GI50 (RPMI-8226 leukemia) was 0.149 µM and the GI50 (HT29 colon) was 0.0921 µM. It also gave a TGI (HT29 colon) of 0.286 µM, a GI50 (DU-145 prostate) of 0.14 µM and a GI50 (CCRF-CEM leukemia) of 0.118 µM. For the same compound, the GI50 (HL-60(TB) leukemia) was 0.0893 µM, the GI50 (K-562 leukemia) was 0.0753 µM and the TGI (K-562 leukemia) was > 100 µM. The GI50 (SK-MEL-2 melanoma) was 0.0399 µM and the TGI (SK-MEL-2 melanoma) was 10.8 µM.
